The source of these data is patent US12091426B2, “Bifunctional degraders of hematopoietic progenitor kinase and therapeutic uses thereof” (Nurix Therapeutics, Inc., priority 2021, dated 2024).

For this assay, the target named is T1, HPK1 (Homo sapiens, UniProt Q92918).
T1 construct: A HiBiT tag was introduced by CRISPR on the N terminus of HPK1 in Jurkat cells; host or cells: Jurkat cells (ATCC TIB-152), monoclonal line with CRISPR knock-in of HiBiT at the endogenous HPK1 locus
Briefly: HPK1 Cellular HiBit Degradation Assay. It is filed as cell-based. The following applies: HiBiT HPK1 Jurkat cells, 24 hrs; for DC50: concentration at which 50% of HPK1 was remaining, read-out: DC50 Category; for Dmax: Jurkat, read-out: Dmax Category. In short, it runs like this: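 Jurkat cells with CRISPR N-terminal HiBiT-tagged endogenous HPK1 treated 24 h at 37 °C with 11-point, 3.16-fold dilutions (10 uM to 0.1 nM final). HiBiT lytic luminescence gives % HPK1 remaining versus DMSO, with parental cells as background. Four-parameter fit yields DC50; Dmax = 100 minus lowest % remaining.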
(In general: The HiBiT peptide binds its large partner to form an active luciferase.)

Where [1] appears, read: maximum degradation vs DMSO vehicle control.

Usually DC50 stands for the midpoint of the concentration-degradation curve. The Dmax is the largest share of the target that was removed.

T1 sequence (Q92918 whole entry): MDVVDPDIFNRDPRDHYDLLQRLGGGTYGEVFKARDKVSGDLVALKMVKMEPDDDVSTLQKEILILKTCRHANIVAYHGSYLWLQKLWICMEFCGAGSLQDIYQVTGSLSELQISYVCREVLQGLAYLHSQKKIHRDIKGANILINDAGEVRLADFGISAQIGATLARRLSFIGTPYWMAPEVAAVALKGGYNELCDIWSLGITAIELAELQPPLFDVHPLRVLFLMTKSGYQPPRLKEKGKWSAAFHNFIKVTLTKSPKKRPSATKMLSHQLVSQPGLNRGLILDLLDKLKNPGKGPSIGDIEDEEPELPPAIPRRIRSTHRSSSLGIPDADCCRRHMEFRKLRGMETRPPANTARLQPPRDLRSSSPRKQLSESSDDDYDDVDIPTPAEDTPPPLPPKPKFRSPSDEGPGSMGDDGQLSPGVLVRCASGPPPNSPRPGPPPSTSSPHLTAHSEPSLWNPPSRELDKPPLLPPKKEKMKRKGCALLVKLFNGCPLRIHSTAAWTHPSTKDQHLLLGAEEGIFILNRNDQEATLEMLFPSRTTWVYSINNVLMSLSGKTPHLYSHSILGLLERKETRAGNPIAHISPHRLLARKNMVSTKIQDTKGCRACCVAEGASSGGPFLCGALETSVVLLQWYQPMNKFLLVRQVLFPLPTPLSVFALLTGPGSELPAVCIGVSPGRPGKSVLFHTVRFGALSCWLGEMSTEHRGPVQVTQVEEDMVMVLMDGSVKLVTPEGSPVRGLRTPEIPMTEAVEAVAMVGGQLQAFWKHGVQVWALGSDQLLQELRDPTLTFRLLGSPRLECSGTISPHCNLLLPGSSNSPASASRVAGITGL

In the case of `Cc1nc(N2CCC(C(=O)N3CCC(C)(C(=O)N4CCC5(CC4)C(=O)N([C@H]4C[C@@H](N6CCCCC6)C4)c4cc(-c6cc7ncn(C(C)C)c7c(Nc7ccccc7F)n6)ccc45)CC3)CC2)ccc1C1CCC(=O)NC1=O` (mixture of isomers) [Example 157, (3RS)-3-[6-(4-{4-[(6-{4-[(2-fluorophenyl)amino]-3-(propan-2-yl)-3H-imidazo[4,5-c]pyridin-6-yl}-2-oxo-1-[(1S,3S)-3-(piperidin-1-yl)cyclobutyl]-1,2-dihydrospiro[indole-3,4′-piperidin]-1′-yl)carbonyl]-4-methylpiperidine-1-carbonyl}piperidin-1-yl)-2-Methylpyridin-3-yl]piperidine-2,6-dione], the DC50 is 0.1 to 0.5 µM. In addition, under setting [1], the Dmax lay within 70 to 85%.
For `CC(C)n1cnc2cc(-c3ccc4c(c3)N([C@H]3C[C@@H](N5CCCCC5)C3)C(=O)C43CCN(C(=O)[C@H]4CCN(C(=O)C5CCN(c6ccc(C7CCC(=O)NC7=O)cn6)CC5)C4)CC3)nc(Nc3ccccc3F)c21` (mixture of isomers) [Example 33, (3RS)-3-(6-{4-[(3S)-3-[(6-{4-[(2-fluorophenyl)amino]-3-(propan-2-yl)-3H-imidazo[4,5-c]pyridin-6-yl}-2-oxo-1-[(1S,3S)-3-(piperidin-1-yl)cyclobutyl]-1,2-dihydrospiro[indole-3,4′-piperidin]-1′-yl)carbonyl]pyrrolidine-1-carbonyl]piperidin-1-yl}pyridin-3-yl)piperidine-2,6-dione] the same measures were less than 0.1 µM and 70 to 85%.
On to `CC(C)n1cnc2cc(-c3ccc4c(c3)N([C@H]3C[C@@H](N5CCCCC5)C3)C(=O)C43CCN(C(=O)C4CCN(C(=O)C5CCN(c6ccc(C(=O)NC7CCC(=O)NC7=O)nc6)CC5)CC4)CC3)nc(Nc3ccccc3F)c21` (mixture of isomers) [Example 83, N-[(3RS)-2,6-dioxopiperidin-3-yl]-5-(4-{4-[(6-{4-[(2-fluorophenyl)amino]-3-(propan-2-yl)-3H-imidazo[4,5-c]pyridin-6-yl}-2-oxo-1-[(1S,3S)-3-(piperidin-1-yl)cyclobutyl]-1,2-dihydrospiro[indole-3,4′-piperidin]-1′-yl)carbonyl]piperidine-1-carbonyl}piperidin-1-yl)pyridine-2-carboxamide], for which the DC50 lay within 0.1 to 0.5 µM. Besides, the Dmax under setting [1] fell in the range of 50 to 70%.
`CC(C)n1cnc2cc(-c3ccc4c(c3)N([C@H]3C[C@@H](N5CCCCC5)C3)C(=O)C43CCN(C(=O)C4CCN(C(=O)[C@H]5CC[C@H](N(C)c6ccc(C7CCC(=O)NC7=O)cn6)CC5)CC4)CC3)nc(Nc3ccccc3F)c21` (mixture of isomers) [Example 131, (3RS)-3-(6-{methyl[(1R,4R)-4-{4-[(6-{4-[(2-fluorophenyl)amino]-3-(propan-2-yl)-3H-imidazo[4,5-c]pyridin-6-yl}-2-oxo-1-[(1S,3S)-3-(piperidin-1-yl)cyclobutyl]-1,2-dihydrospiro[indole-3,4′-piperidin]-1′-yl)carbonyl]piperidine-1-carbonyl}cyclohexyl]amino}pyridin-3-yl)piperidine-2,6-dione]: the DC50 was less than 0.1 µM. Further, the Dmax under setting [1] fell in the range of 70 to 85%.
For `Cc1cc(F)c(Nc2nc(-c3ccc4c(c3)N([C@H]3C[C@@H](N5CCCCC5)C3)C(=O)C43CCN(C(=O)C4CCN(CC5CCN(c6cccc7c6n(C)c(=O)n7C6CCC(=O)NC6=O)CC5)CC4)CC3)cc3ncn(C(C)C)c23)cc1C(=O)NC(C)C` (mixture of isomers) [Example 142, 5-{[6-(1′-{1-[(1-{1-[(3RS)-2,6-dioxopiperidin-3-yl]-3-methyl-2-oxo-2,3-dihydro-1H-1,3-benzodiazol-4-yl}piperidin-4-yl)methyl]piperidine-4-carbonyl}-2-oxo-1-[(1S,3S)-3-(piperidin-1-yl)cyclobutyl]-1,2-dihydrospiro[indole-3,4′-piperidin]-6-yl)-3-(propan-2-yl)-3H-imidazo[4,5-c]pyridin-4-yl]amino}-4-fluoro-2-methyl-N-(propan-2-yl)benzamide] the same measures were 0.5 to 1 µM and 70 to 85%.
For `CC(C)n1cnc2cc(-c3ccc4c(c3)N([C@H]3C[C@@H](N5CCCCC5)C3)C(=O)C43CCN(C(=O)[C@@H]4CCN(C(=O)[C@H]5CC[C@H](Nc6ccc(C7CCC(=O)NC7=O)cn6)CC5)C4)CC3)nc(NC3CC3)c21` (mixture of isomers) [Example 5, (3RS)-3-(6-{[(1R,4R)-4-[(3R)-3-({6-[4-(cyclopropylamino)-3-(propan-2-yl)-3H-imidazo[4,5-c]pyridin-6-yl]-2-oxo-1-[(1S,3S)-3-(piperidin-1-yl)cyclobutyl]-1,2-dihydrospiro[indole-3,4′-piperidin]-1′-yl}carbonyl)pyrrolidine-1-carbonyl]cyclohexyl]amino}pyridin-3-yl)piperidine-2,6-dione] the same measures were 0.1 to 0.5 µM and 70 to 85%.
On the same counts, the results for `CC(C)n1cnc2cc(-c3ccc4c(c3)N([C@H]3C[C@@H](N5CCCCC5)C3)C(=O)C43CCN(C(=O)C4(C)CCN(C(=O)N5CC6(C5)CN(c5ccc(C7CCC(=O)NC7=O)cn5)C6)CC4)CC3)nc(NC3CC3)c21` (stereo partly drawn) [Example 184, 3-(6-{6-[4-({6-[4-(cyclopropylamino)-3-(propan-2-yl)-3H-imidazo[4,5-c]pyridin-6-yl]-2-oxo-1-[(1S,3S)-3-(piperidin-1-yl)cyclobutyl]-1,2-dihydrospiro[indole-3,4′-piperidine]-1′-yl}carbonyl)-4-methylpiperidine-1-carbonyl]-2,6-diazaspiro[3.3]heptan-2-yl}pyridin-3-yl)piperidine-2,6-dione] are 0.1 to 0.5 µM and 50 to 70%.
For the compound `CC(C)n1cnc2cc(-c3ccc4c(c3)N([C@H]3C[C@@H](N5CCCCC5)C3)C(=O)C43CCN(C(=O)[C@@H]4CCN(C(=O)[C@H]5CC[C@H](Nc6cccc(C7CCC(=O)NC7=O)n6)CC5)C4)CC3)nc(Nc3ccccc3F)c21` (mixture of isomers) [Example 8, (3RS)-3-(6-{1[(1R,4R)-4-[(3R)-3-[(6-{4-[(2-fluorophenyl)amino]-3-(propan-2-yl)-3H-imidazo[4,5-c]pyridin-6-yl}-2-oxo-1-[(1S,3S)-3-(piperidin-1-yl)cyclobutyl]-1,2-dihydrospiro[indole-3,4′-piperidin]-1′-yl)carbonyl]pyrrolidine-1-carbonyl]cyclohexyl]amino}pyridin-2-yl)piperidine-2,6-dione], the DC50 fell in the range of 0.5 to 1 µM. For the same compound, the Dmax under setting [1] lay within 70 to 85%.
In the case of `CC(C)n1cnc2cc(-c3ccc4c(c3)N([C@H]3C[C@@H](N5CCCCC5)C3)C(=O)C43CCN(C(=O)C4C5CN(C(=O)C6CCN(c7ccc(C8CCC(=O)NC8=O)cn7)CC6)CC54)CC3)nc(NC3CC3)c21` (mixture of isomers) [Example 38, (3RS)-3-(6-{4-[6-({6-[4-(cyclopropylamino)-3-(propan-2-yl)-3H-imidazo[4,5-c]pyridin-6-yl]-2-oxo-1-[(1S,3S)-3-(piperidin-1-yl)cyclobutyl]-1,2-dihydrospiro[indole-3,4′-piperidin]-1′-yl}carbonyl)-3-azabicyclo[3.1.0]hexane-3-carbonyl]piperidin-1-yl}pyridin-3-yl)piperidine-2,6-dione], the DC50 was 0.1 to 0.5 µM. Moreover, the Dmax under setting [1] was in the range of 50 to 70%.
On the same counts, the results for `CC(C)n1cnc2cc(-c3ccc4c(c3)N([C@H]3C[C@@H](N5CCCCC5)C3)C(=O)C43CCN(S(=O)(=O)C4CCN(C(=O)C5CCN(c6ccc(C7CCC(=O)NC7=O)cn6)CC5)CC4)CC3)nc(NC3CC3)c21` (mixture of isomers) [Example 159, (3RS)-3-(6-{4-[4-({6-[4-(cyclopropylamino)-3-(propan-2-yl)-3H-imidazo[4,5-c]pyridin-6-yl]-2-oxo-1-[(1S,3S)-3-(piperidin-1-yl)cyclobutyl]-1,2-dihydrospiro[indole-3,4′-piperidin]-1′-yl}sulfonyl)piperidine-1-carbonyl]piperidin-1-yl}pyridin-3-yl)piperidine-2,6-dione] are less than 0.1 µM and more than 85%.
On to `CC(C)n1cnc2cc(-c3ccc4c(c3)N([C@H]3C[C@@H](N5CCCCC5)C3)C(=O)C43CCN(C(=O)C4(C)CCN(C(=O)C5CCN(c6ccc(N7CCC(=O)NC7=O)cn6)CC5)CC4)CC3)nc(NC3CC3)c21` [Example 115, 1-(6-{4-[4-({6-[4-(cyclopropylamino)-3-(propan-2-yl)-3H-imidazo[4,5-c]pyridin-6-yl]-2-oxo-1-[(1S,3S)-3-(piperidin-1-yl)cyclobutyl]-1,2-dihydrospiro[indole-3,4′-piperidin]-1′-yl}carbonyl)-4-methylpiperidine-1-carbonyl]piperidin-1-yl}pyridin-3-yl)-1,3-diazinane-2,4-dione], for which the DC50 is less than 0.1 µM. Moreover, the Dmax under setting [1] lay within 70 to 85%.
For the compound `CC(C)n1cnc2cc(-c3ccc4c(c3)N(C3CC(N5CCCCC5)C3)C(=O)C43CCN(C(=O)C4CCN(C(=O)C5CCN(c6ccc7c(c6)C(=O)N(C6CCC(=O)NC6=O)C7=O)CC5)CC4)CC3)nc(Nc3ccncc3F)c21` (racemic) [Example 88, 2-[(3RS)-2,6-dioxopiperidin-3-yl]-5-(4-{4-[(6-{4-[(3-Fluoropyridin-4-yl)amino]-3-(propan-2-yl)-3H-imidazo[4,5-c]pyridin-6-yl}-2-oxo-1-[(1S,3S)-3-(piperidin-1-yl)cyclobutyl]-1,2-dihydrospiro[indole-3,4′-piperidin]-1′-yl)carbonyl]piperidine-1-carbonyl}piperidin-1-yl)-2,3-dihydro-1H-isoindole-1,3-dione], the DC50 is less than 0.1 µM. Further, the “Dmax Category” value under setting [1] was “C (C: >50%-<70%)”.
